Laboratory results from PubChem BioAssay AID248 (DTP/NCI, 2004).
Several values for one entry are separate records, joined by “and”; a condition that tells them apart may be missing. Equal values may be shown once. Toxic doses and inconclusive results are not listed. Cut-off read from the data, not from the text of the source: active = T/C of 150% or more; inactive = T/C below 125%.

Test system: L1210 leukemia ip in BDF1 mice, survival T/C
Assay: NCI In Vivo Anticancer Drug Screen. Data for tumor model L1210 Leukemia (intraperitoneal) in B6D2F1 (BDF1) mice
Details: endpoint: mean survival time, higher = longer survival
Summary of the method: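 Value reflects the ratio of survival in compound-treated mice to survival in vehicle-treated controls, with both groups carrying the same transplanted tumor.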

[1] = dose: 100.0 mg/kg/injection, schedule: Q01DX001 (ip), vehicle: carboxymethylcellulose (CMC)
[2] = dose: 200.0 mg/kg/injection, schedule: Q01DX001 (ip), vehicle: carboxymethylcellulose (CMC)
[3] = dose: 400.0 mg/kg/injection, schedule: Q01DX001 (ip), vehicle: carboxymethylcellulose (CMC)
[4] = dose: 100.0 mg/kg/injection, schedule: Q04DX003 (ip), vehicle: saline with Tween-80
[5] = dose: 200.0 mg/kg/injection, schedule: Q04DX003 (ip), vehicle: saline with Tween-80
[6] = dose: 400.0 mg/kg/injection, schedule: Q04DX003 (ip), vehicle: saline with Tween-80

Measured: T/C

O=[N+]([O-])c1ccc(Oc2cc(Cl)c(Cl)cc2Cl)c([N+](=O)[O-])c1
inactive: dose: 100.0 mg/kg/injection, schedule: Q01DX001 (ip), vehicle: other 90 % of control | dose: 100.0 mg/kg/injection, schedule: Q04DX003 (ip), vehicle: other 98 % of control | dose: 200.0 mg/kg/injection, schedule: Q01DX001 (ip), vehicle: other 92 % of control | dose: 200.0 mg/kg/injection, schedule: Q04DX003 (ip), vehicle: other 95 % of control | dose: 222.0 mg/kg/injection, schedule: Q01DX Z (ip), vehicle: methylcellulose (MC) 100 % of control | dose: 333.0 mg/kg/injection, schedule: Q01DX Z (ip), vehicle: methylcellulose (MC) 91 % of control | dose: 400.0 mg/kg/injection, schedule: Q01DX001 (ip), vehicle: other 89 % of control and 91 % of control | dose: 400.0 mg/kg/injection, schedule: Q04DX003 (ip), vehicle: other 95 % of control | dose: 500.0 mg/kg/injection, schedule: Q01DX Z (ip), vehicle: methylcellulose (MC) 91 % of control

CC(C)(C)OC(=O)NN1Cc2ccccc2Cc2ccccc2C1
inactive: [1] 96 % of control | [2] 91 % of control | [3] 96 % of control

CCN(CC)CCN1c2cc(C)ccc2Sc2ccc3ccccc3c21
inactive: dose: 100.0 mg/kg/injection, schedule: Q01DX001 (sc), vehicle: olive oil, sesame oil, peanut oil 101 % of control | dose: 100.0 mg/kg/injection, schedule: Q01DX009 (sc), vehicle: olive oil, sesame oil, peanut oil 101 % of control | dose: 100.0 mg/kg/injection, schedule: Q04DX003 (sc), vehicle: olive oil, sesame oil, peanut oil 110 % of control | dose: 200.0 mg/kg/injection, schedule: Q01DX001 (sc), vehicle: olive oil, sesame oil, peanut oil 100 % of control | dose: 200.0 mg/kg/injection, schedule: Q01DX009 (sc), vehicle: olive oil, sesame oil, peanut oil 118 % of control | dose: 200.0 mg/kg/injection, schedule: Q04DX003 (sc), vehicle: olive oil, sesame oil, peanut oil 110 % of control | dose: 400.0 mg/kg/injection, schedule: Q01DX001 (sc), vehicle: olive oil, sesame oil, peanut oil 101 % of control | dose: 400.0 mg/kg/injection, schedule: Q04DX003 (sc), vehicle: olive oil, sesame oil, peanut oil 113 % of control

COC1(c2ccccc2)OC(C(C)(C)C)=NC1(C)C (configuration not stated)
inactive: [4] 92 % of control | [5] 108 % of control

COC(=O)C(Cc1ccc(C)cc1)N1CCCCC1 (configuration not stated)
inactive: [1] 101 % of control | [2] 101 % of control | [3] 98 % of control

c1n[nH]c2c1CCCC2
inactive: dose: 100.0 mg/kg/injection, schedule: Q01DX001 (ip), vehicle: saline with Tween-80 89 % of control | dose: 100.0 mg/kg/injection, schedule: Q01DX009 (ip), vehicle: saline with Tween-80 98 % of control | dose: 100.0 mg/kg/injection, schedule: Q04DX002 (ip), vehicle: saline with Tween-80 97 % of control and 91 % of control | [4] 96 % of control and 104 % of control | dose: 200.0 mg/kg/injection, schedule: Q01DX001 (ip), vehicle: saline with Tween-80 86 % of control | dose: 200.0 mg/kg/injection, schedule: Q01DX009 (ip), vehicle: saline with Tween-80 98 % of control | dose: 200.0 mg/kg/injection, schedule: Q04DX002 (ip), vehicle: saline with Tween-80 94 % of control and 92 % of control | [5] 98 % of control and 108 % of control | dose: 400.0 mg/kg/injection, schedule: Q04DX002 (ip), vehicle: saline with Tween-80 94 % of control | [6] 100 % of control and 92 % of control

O=C/C=C/c1cc([N+](=O)[O-])ccc1Cl
inactive: dose: 100.0 mg/kg/injection, schedule: Q04DX002 (ip), vehicle: Klucel (hydroxypropylcellulose) (HPC) 100 % of control | dose: 200.0 mg/kg/injection, schedule: Q04DX002 (ip), vehicle: Klucel (hydroxypropylcellulose) (HPC) 96 % of control | dose: 400.0 mg/kg/injection, schedule: Q04DX002 (ip), vehicle: Klucel (hydroxypropylcellulose) (HPC) 100 % of control

Cc1ccc(Oc2cccc(C(=O)O)c2)cc1
inactive: dose: 100.0 mg/kg/injection, schedule: Q04DX003 (ip), vehicle: Klucel (hydroxypropylcellulose) (HPC) 107 % of control | dose: 200.0 mg/kg/injection, schedule: Q04DX003 (ip), vehicle: Klucel (hydroxypropylcellulose) (HPC) 96 % of control | dose: 400.0 mg/kg/injection, schedule: Q04DX003 (ip), vehicle: Klucel (hydroxypropylcellulose) (HPC) 118 % of control

CCOC(CN=Cc1cccc2ccccc12)OCC
inactive: [4] 95 % of control | [5] 93 % of control | [6] 95 % of control

CC(C)CCCC(C)C1CCC2C3CC=C4CC(C(=O)NN)CCC4(C)C3CCC12C (configuration not stated)
inactive: [4] 96 % of control | [5] 96 % of control | [6] 98 % of control
